Results taken from US20250154157A1, “HETEROCYCLIC COMPOUNDS USEFUL FOR TREATING A ERK5-MEDIATED DISEASE” (Cancer Research Technology Limited, priority 2022, published 2025).

Experiments:
Format in all cases: cell-based
[1] = test system: EMT, angiogenesis and pro-tumour inflammation genes (N-cadherin, cytokeratin, B1-integrin, VEGF, IL6, IL1b, E-cadherin); assay: qRT-PCR, mRNA levels of EMT, angiogenesis and inflammatory regulators in TNBC cell lines (FIG. 11)
Description: qRT-PCR: Total RNA was isolated from cells using TRIZOL and/or the miRNeasy mini kit (Qiagen). We carried out cDNA synthesis as previously described by Green, D., Eyre, H., Singh, A. et al (Targeting the MAPK7/MMP9 axis for metastasis in primary bone cancer. Oncogene 39, 5553-5569 (2020)). We performed qPCR using the SYBR Green I core kit (Eurogentec). PCR products were detected in the ABI PRISM® 7700 sequence detection system (Thermo Fisher Scientific). We analysed results using the […]. Gene expression was normalised to PGK1 or ACTB.
Relative mRNA levels, compared to internal control PGK1 or ACTB, in three triple negative breast cancer cell lines: MDA-MB-231, MDA-MB-468 and SUM159.

[2] = test system: TNBC cells (MDA-MB-231, MDA-MB-468 and SUM159); assay: Immunofluorescence, morphology of TNBC cells (FIG. 10); details: 1 μM OS1 or 2.5 μM AX15836; MDA-MB-231, MDA-MB-468, SUM159
Method: (§1) Cells were seeded and treated. Media was aspirated, cells were washed with PBS and subsequently fixed in 10% formalin for 10 minutes. Fixed cells were washed in PBS and then permeablised with 0.1% (v/v) Triton-100 in PBS for 10 minutes. Cells were washed with PBS and the non-specific binding sites were blocked by incubating with 1% BSA for 30 minutes. Targets of interested were identified by incubating with 100 μl of primary antibody diluted in 1% BSA (see table) overnight at 4° C. After washing with PBS, samples were further incubated with species specific secondary antibody coupled to fluorescent tags (see antibody table) for 1 hour in the dark at room temperature. Some samples were further incubated with 100 μl of 1:200 phalloidin (Invitrogen, A12381) in 1% BSA for 2 hours at room temperature to identify actin filament structures. The EZ-slides casing was dismantled as described in manufacturer's instruction and slides were washed in distilled H2O. Samples were incubated with one drop of Mounting Medium with DAPI (abcam) for 5 minutes in the dark at room temperature to visualise the nuclei. A coverslip was added to each slide and allowed to dry at room temperature. Images were acquired on a 3D-Histech Pannoramic-250 microscope slide-scanner using a 20×/0.80 Plan Apochromat objective (Zeiss) and the DAPI, FITC and TRITC filter sets. […] Images were then processed and analysed using ImageJ. […]

BRD4 [3] = biological target: T1, BRD4 (Homo sapiens, UniProt O60885); assay: Repeated dosing of OS1 up to 2 weeks, immunoblotting (FIG. 9): BRD4; set-up: endogenous in cells; details: 1 μM every 48 h for up to two weeks, TNBC cell lines
Method: (§2) We extracted proteins in RIPA assay buffer containing protease and phosphatase inhibitors. We resolved extracts (30 μg) by SDS/PAGE and electrophoretically transferred to an Immun-Blot® PVDF membrane (Bio-Rad). Membranes were saturated in 3% non-fat dry milk or 3% BSA and probed overnight at 4° C. with antibodies (1:1,000 dilution unless otherwise indicated) to ERK5, BRD4, MEK5 and β-actin. We detected immunocomplexes by enhanced chemiluminescence with IgG coupled to horseradish peroxidase as the secondary anti-rabbit and anti-mouse antibodies (Abcam).

p-ERK5 = biological target: T2, p-ERK5 (Homo sapiens, UniProt Q13164); assay: Immunoblotting in 3 TNBC cell lines (FIG. 8): phospho-ERK5 levels; details: at higher doses
T2 construct: endogenous in cells; host or cells: MDA-MB-231, MDA-MB-468, SUM159
Method: as §2, with “ERK5, P-ERK5, ERK1/2,” for “ERK5,”
(§3) Left hand side panels are Western blot images, showing the relative expression of proteins in response to a range of doses of OS1. Right hand side panels are graphs quantifying the western blot images to show ERK5, phospho-ERK5, ERK1/2 and BRD4 protein levels relative to the loading control β-actin.

BRD4 [4] = biological target: T1, BRD4; assay: Immunoblotting, specificity testing in 3 TNBC cell lines (FIG. 8): BRD4 levels; set-up: endogenous in cells; details: range of doses
Method: as §2, with “ERK5, P-ERK5, ERK1/2,” for “ERK5,”
as §3

ERK1/2 [5] = assay: Immunoblotting, specificity testing in 3 TNBC cell lines (FIG. 8): ERK1/2 levels; details: range of doses
Method: as §2, with “ERK5, P-ERK5, ERK1/2,” for “ERK5,”
as §3

MEK5 = biological target: T3, MEK5 (Homo sapiens, UniProt Q13163); assay: Repeated dosing of OS1 up to 2 weeks, immunoblotting (FIG. 9): MEK5; details: 1 μM every 48 h for up to two weeks, TNBC cell lines
T3 construct: endogenous in cells; host or cells: MDA-MB-231, MDA-MB-468, SUM159
T3 sequence (Q13163 1-448): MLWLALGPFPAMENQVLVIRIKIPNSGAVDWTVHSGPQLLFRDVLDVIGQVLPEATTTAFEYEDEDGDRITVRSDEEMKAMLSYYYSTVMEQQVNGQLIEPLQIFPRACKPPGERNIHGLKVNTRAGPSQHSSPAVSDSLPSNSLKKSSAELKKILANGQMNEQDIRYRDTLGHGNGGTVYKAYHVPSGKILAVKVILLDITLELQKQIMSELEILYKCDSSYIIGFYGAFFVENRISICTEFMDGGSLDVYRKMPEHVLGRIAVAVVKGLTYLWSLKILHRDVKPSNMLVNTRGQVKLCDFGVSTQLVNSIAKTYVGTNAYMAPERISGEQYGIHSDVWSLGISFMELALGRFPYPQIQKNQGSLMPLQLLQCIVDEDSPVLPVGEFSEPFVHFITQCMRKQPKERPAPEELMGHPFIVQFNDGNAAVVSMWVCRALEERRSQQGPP
Method: as §2

ERK5 [6] = biological target: T4, ERK5 (Homo sapiens, UniProt Q13164); assay: Immunoblotting, comparison with Example 7 of WO2021061894 in MDA-MB-468 cells (FIGS. 12 and 13): ERK5; set-up: endogenous in cells; host or cells: MDA-MB-468; details: 48 hours after a single dose, relative to b-actin
Method: as §2
(§4) OS1 and OS11 degrade EKR5 at lower concentrations than Comparative Example 7. OS1 is efficacious at degrading ERK5 at doses of 0.1 μM and OS11 at 0.01 μM. In contrast, a dose of 5 μM of Comparative Example 7 is required to achieve analogous ERK5 degradation to 0.1 μM OS1 or 0.01 μM OS11.

BRD4 [7] = biological target: T1, BRD4; assay: Immunoblotting, comparison with Example 7 of WO2021061894 in MDA-MB-468 cells (FIGS. 12 and 13): BRD4; set-up: endogenous in cells; host or cells: MDA-MB-231, MDA-MB-468, SUM159; details: 48 hours after a single dose, Comparative Example 7 at 5 μM
Method: as §2, §4

ERK1/2 [8] = assay: Repeated dosing of OS1 up to 2 weeks, immunoblotting (FIG. 9): ERK1/2; details: 1 μM every 48 h for up to two weeks, TNBC cell lines
ERK5 [9] = biological target: T4, ERK5; assay: Immunofluorescence, ERK5 staining in TNBC cells (FIG. 10); set-up: endogenous in cells; host or cells: MDA-MB-231, MDA-MB-468, SUM159; details: 1 μM OS1, TNBC cell lines
Method: as §1

ERK5 [10] = biological target: T4, ERK5; assay: Immunoblotting, 8 point dose response to OS1 in 3 TNBC cell lines (FIG. 8): ERK5 levels; set-up: endogenous in cells; host or cells: MDA-MB-231, MDA-MB-468, SUM159
Method: as §2, with “ERK5, P-ERK5, ERK1/2,” for “ERK5,”
as §3

[11] = 24 h treatment, mRNA relative to PGK1 or ACTB, three TNBC cell lines

T4 sequence (Q13164 whole entry): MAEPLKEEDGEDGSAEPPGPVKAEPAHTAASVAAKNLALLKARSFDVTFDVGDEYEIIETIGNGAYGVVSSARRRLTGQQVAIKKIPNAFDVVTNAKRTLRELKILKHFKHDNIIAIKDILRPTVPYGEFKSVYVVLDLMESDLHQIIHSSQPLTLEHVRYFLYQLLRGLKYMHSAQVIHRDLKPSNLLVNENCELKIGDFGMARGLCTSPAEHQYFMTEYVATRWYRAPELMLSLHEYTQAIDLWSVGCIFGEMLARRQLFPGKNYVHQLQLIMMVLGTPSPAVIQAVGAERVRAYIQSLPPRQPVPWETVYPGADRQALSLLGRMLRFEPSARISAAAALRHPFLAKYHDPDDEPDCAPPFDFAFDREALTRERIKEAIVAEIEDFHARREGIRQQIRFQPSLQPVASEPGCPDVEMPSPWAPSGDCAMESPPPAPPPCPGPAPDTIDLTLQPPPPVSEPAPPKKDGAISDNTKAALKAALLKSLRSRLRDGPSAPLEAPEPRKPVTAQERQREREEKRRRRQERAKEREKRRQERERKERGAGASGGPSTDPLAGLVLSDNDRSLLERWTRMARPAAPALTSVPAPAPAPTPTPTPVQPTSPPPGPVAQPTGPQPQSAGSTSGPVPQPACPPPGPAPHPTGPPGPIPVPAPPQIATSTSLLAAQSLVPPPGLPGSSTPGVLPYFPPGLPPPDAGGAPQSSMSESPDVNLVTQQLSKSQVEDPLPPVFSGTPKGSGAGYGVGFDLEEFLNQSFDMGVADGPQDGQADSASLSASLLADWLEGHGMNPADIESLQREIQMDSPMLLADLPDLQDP
T2 sequence (Q13164 whole entry): as above

effect of repeated dosing on BRD4 (BRD4 [3]) | kinase inhibitor activity (p-ERK5 on immunoblot) (p-ERK5) | off target effects on known off-target of literature ERK5 inhibitors (BRD4) (BRD4 [4]) | effect of repeated dosing on MEK5 (MEK5) | dose efficacious at degrading ERK5 (analogous ERK5 degradation) (ERK5 [6]) | degradation of off-target BRD4 (BRD4 [7]) | ERK5 staining (green), immunofluorescence (ERK5 [9]) | dose inducing the hook effect (ERK5 [10]; TNBC cell lines) | most effective dose for ERK5 degradation (ERK5 [10]; TNBC cell lines) | ERK5 degraded (ERK5 [10]; range of TNBC cell lines (MDA-MB-231, MDA-MB-468, SUM159), western blot relative to β-actin) | SMILES | expression of genes that promote EMT, migration and metastatic behaviour (N-cadherin, cytokeratin, B1-integrin), angiogenesis (VEGF) and pro-tumour inflammation (IL6, IL1b) [1, 11] | effect on morphology of TNBC cells [2] | dose most effective in affecting gene expression ([1]; 0.1 or 1 μM tested, 24 h) | expression of genes that block EMT, migration and metastatic behaviour (E-cadherin) [1, 11] | off target effects on structurally similar proteins (ERK1/2) (ERK1/2 [5]) | effect of repeated dosing on ERK1/2 (ERK1/2 [8])
 |  |  |  |  |  |  |  |  |  | CCOc1cc(C(=O)N2CCC(N3CCN(C)CC3)CC2)ccc1Nc1ncc2c(n1)N(S(C)(=O)=O)c1ccccc1C(=O)N2C [AX15836, 5,11-Dihydro-2-[[2-ethoxy-4-[[4-(4-methyl-1-piperazinyl)-1-piperidinyl]carbonyl]phenyl]amino]-5-methyl,11-(methylsulfonyl)-6H-pyrimido[4,5-b][1,4]benzodiazepin-6-one, reference compound] | not | does not |  |  |  | 
no effect | reduction in p-ERK5 | no off target effects | unaffected | 0.1 μM | do not cause degradation | loss of ERK5 staining | 10 µM | 1 µM | > 90% | CCOc1cc(C(=O)N2CCC(N3CCN(CCCCCc4cccc5c4C(=O)N(C4CCC(=O)NC4=O)C5=O)CC3)CC2)ccc1Nc1ncc2c(n1)N(S(C)(=O)=O)c1ccccc1C(=O)N2C (stereo not drawn) [OS1, 2-(2,6-Dioxopiperidin-3-yl)-4-(5-(4-(1-(3-ethoxy-4-((5-methyl-11-(methylsulfonyl)-6-oxo-6,11-dihydro-5H-benzo[e]pyrimido[5,4-b][1,4]diazepin-2-yl)amino)benzoyl)piperidin-4-yl)piperazin-1-yl)pentyl)isoindoline-1,3-dione] | induces a loss of expression | affects morphology | 1 µM | increase in expression | no off target effects | no effect
